Measurements published in patent US5266328A, “Laminin a chain polypeptides from the carboxy terminal globular domain” (Regents of the University of Minnesota, priority 1990, dated 1993).

How the values were obtained:
[1] = system: human fibrosarcoma (HT1080) cells; assay: Inhibition of cell adhesion to laminin-coated surfaces; type: cell-based; details: soluble peptide 20 μg/ml, surface coated with 1.5 μg of laminin
Description: (§1) The murine melanoma K-1735-C10 (low metastatic) and K-1735-M4 (high metastatic) cell lines, murine UV-2237-MM fibrosarcoma cell line, human renal carcinoma SN12 C (low metastatic) and SN12 PM-6 (high metastatic) cell lines, and human colon carcinoma KM12 C (low metastatic) and KM12 SM (high metastatic) cell lines were originally provided by Dr. I. J. Fidler (M.D., Anderson Hospital, University of Texas Health Sciences Center, Houston, Tex.). The human fibrosarcoma HT-1080 cell line was obtained from the ATCC. The MM fibrosarcoma cell line was maintained in DME (GIBCO Laboratories, Grand Island, N.Y.) containing 10% FBS, the murine melanomas were maintained in DMEM containing 10% calf serum, the human fibrosarcoma cells were maintained in EMEM containing 10% heat inactivated FBS, and the human renal and colon carcinoma cells were grown in EME containing 10% FBS, vitamins, and 1 mM sodium pyruvate. Cells were passaged for 4 to 5 weeks and then replaced from frozen stocks of early passage cells to minimize phenotypic drift. Cells were maintained at 37° C. in a humidified incubator containing 5% CO2.
(§2) Inhibition of cell adhesion with synthetic peptides was performed using assays similar to those described by Skubitz et al., supra (1987). Briefly, radiolabeled cells at 5×10^4 /ml were incubated for 30 minutes with various concentrations of synthetic peptides (1.0 μg/ml-200 μg/ml) in DME/Hepes containing 2 mg/ml BSA. One hundred microliters of the cell suspension was then added to wells precoated with 1.5 μg of laminin, 1.0 μg of type IV collagen, or 1.0 μg of fibronectin. The cells were incubated for 30 minutes at 37° C., then the wells were washed and adherent cells were quantitated as previously described [Skubitz et al., supra (1987)]. Cell viability after a one hour incubation in the presence of the "inhibitors" was assessed by trypan blue dye exclusion.

[2] = system: murine melanoma (C10) cells; assay: as above; type: cell-based; details: soluble peptide 10 μg/ml, surface coated with 1.5 μg of laminin
Description: as §1, §2

[3] = system: murine fibrosarcoma (MM) cells; assay: as above; type: cell-based; details: soluble peptide 10 μg/ml, surface coated with 1.5 μg of laminin
Description: as §1, §2

[4] = system: murine melanoma (M4) cells; assay: as above; type: cell-based; details: soluble peptide 10 μg/ml, surface coated with 1.5 μg of laminin
Description: as §1, §2

[5] = system: human renal (SN12C) cells; assay: as above; type: cell-based; details: soluble peptide 10 μg/ml, surface coated with 1.5 μg of laminin
Description: as §1, §2

[6] = system: human colon (KM12 C) cells; assay: as above; type: cell-based; details: soluble peptide 10 μg/ml, surface coated with 1.5 μg of laminin
Description: as §1, §2

[7] = system: human renal (SN12 PM6) cells; assay: as above; type: cell-based; details: soluble peptide 10 μg/ml, surface coated with 1.5 μg of laminin
Description: as §1, §2

[8] = system: human fibrosarcoma HT-1080 cell line; assay: Direct cell adhesion to peptide-coated surfaces; type: cell-based; details: surface coated with 1 μg; human fibrosarcoma (HT1080)
Description: (§3) The murine melanoma K-1735-C10 (low metastatic) and K-1735-M4 (high metastatic) cell lines, murine UV-2237-MM fibrosarcoma cell line, human renal carcinoma SN12 C (low metastatic) and SN12 PM-6 (high metastatic) cell lines, and human colon carcinoma KM12 C (low metastatic) and KM12 SM (high metastatic) cell lines were originally provided by Dr. I. J. Fidler (M.D., Anderson Hospital, University of Texas Health Sciences Center, Houston, Tex.). The human fibrosarcoma HT-1080 cell line was obtained from the ATCC. […]
(§4) The direct adhesion of cells to protein or peptide coated surfaces was performed as described in Skubitz et al., Exp. Cell Res., 173, 349-360 (1987) and Charonis et al., supra (1988). […] Adherent cells were solubilized and quantitated in a scintillation counter. […] The solubilized cells were then quantitated using a liquid scintillation counter.
(§5) Instead of attempting to characterize the cell binding activity of all 14 of the synthetic peptides, a number of peptides from each of the three heparin binding categories of peptides were evaluated. […]
Radiolabeled HT-1080 human fibrosarcoma cells were incubated in the wells for 30 minutes and the adhesion of cells was quantitated.

[9] = Solid-phase binding of 3H-heparin to peptides adsorbed to plastic plates (RLBA)
Method: The binding of ^3 H-heparin to laminin A chain peptides was measured in a direct solid phase binding assay as described below, whereby various amounts of the peptides were adsorbed to plates and ^3 H-heparin was added to each well. More specifically, the binding of ^3 H-heparin (0.3 mCi/mg; Du Pont - New England Nuclear Research Products, Wilmington, Del.) to laminin, synthetic peptides, and bovine serum albumin (BSA) (fatty acid free, fraction V, ICN Immunobiologicals) was quantititated by a solid-phase RLBA in 96-well polystyrene Immulon 1 plates (Dynatech Laboratories, Inc., Alexandria, Va.) as described by Skubitz et al., supra (1988). Specifically, 50 microliters of the various proteins at various concentrations (0.2 μg/well-5.0 μg/well) in PBS containing 0.02% NaN3 was added to each well and dried overnight at 29° C. The next day, 200 μl of 2 mg/ml BSA in PBS was added to each well, followed by a 2 hour incubation at 37° C. After removal of this buffer, 50 μl of ^3 H-heparin (200,000 dpm) was added in RLBA buffer (20 mM Tris, pH 6.8 containing 50 mM NaCl and 2 mg/ml ovalbumin) and the wells were incubated at 37° C. for 2 hours. Unbound ^3 H-heparin was removed by washing three times with wash buffer (RLBA buffer containing 0.1% CHAPS). Tritiated heparin was solubilized by incubation with 200 μl of 0.05N NaOH and 1% SDS for 30 minutes at 60° C. and quantitated in a Beckman LS-3801 scintillation counter.
The above experimental procedure was repeated to determine the percentage of ^3 H-heparin that would adhere to 2 μg/well of each polypeptide after a two-hour incubation in increasing concentrations of salt (NaCl).

[10] = system: eight different cell lines of murine or human origin; assay: Direct cell adhesion, summary over eight tumor cell lines; type: cell-based; details: summary of Table IV over eight cell lines
Description: as §3, §4, §5

[11] = system: murine melanoma K-1735-C10 (low metastatic) cell line; assay: Direct cell adhesion to peptide-coated surfaces; type: cell-based; details: surface coated with 1 μg
Description: as §1
(§6) The direct adhesion of cells to protein or peptide coated surfaces was performed as described in Skubitz et al., Exp. Cell Res., 173, 349-360 (1987) and Charonis et al., supra (1988). Briefly, radiolabeled cells were added to 96-well microtiter plates coated with various concentrations of synthetic peptides, laminin, or BSA (0.02 μg/well-50 μg/well from 50 μl solutions) for various lengths of time. After the incubation period, loosely or nonadherent cells were removed by washing the wells three times. Adherent cells were solubilized and quantitated in a scintillation counter. More specifically, cultures of cells which were 60-80% confluent were metabolically labeled for 24 hours with the addition of 3 μCi/ml of ^3 H-td (tritiated thymidine). On the day of the assay, the cells were harvested by trypsinization, the trypsin was inhibited by the addition of serum, and the cells were washed free of this mixture and resuspended in DMEM buffered with HEPES at pH 7.2. The adhesion medium also contained 2 mg/ml BSA. The cells were adjusted to a concentration of 3-4×10^4 /ml, and 100 μl of this cell suspension was added to the wells. The assay mixture was then incubated at 37° C. for 120 minutes. At the end of the incubation, the wells were washed with warm DMEM/Hepes containing 2 mg/ml BSA, and the adherent population was solubilized with 0.5N NaOH contained 1% SDS. The solubilized cells were then quantitated using a liquid scintillation counter.
(§7) Instead of attempting to characterize the cell binding activity of all 14 of the synthetic peptides, a number of peptides from each of the three heparin binding categories of peptides were evaluated. Microtiter wells were adsorbed with the peptides, laminin, or BSA and a variety of tumor cell lines were tested for the ability to adhere to the ligands. The eight different cell lines selected for this study were of murine or human origin and, in most cases, of either high or low metastatic capacity. […] Many of the peptides that were very good at binding heparin and cells were also capable of inhibiting the adhesion of various cells to surfaces coated with laminin (see below).

[12] = system: murine UV-2237-MM fibrosarcoma cell line; assay: Direct cell adhesion to peptide-coated surfaces; type: cell-based; details: surface coated with 1 μg
Description: as §1, §6, §7

[13] = system: murine melanoma K-1735-M4 (high metastatic) cell line; assay: Direct cell adhesion to peptide-coated surfaces; type: cell-based; details: surface coated with 1 μg
Description: as §1, §6, §7

[14] = system: human colon carcinoma KM12 C (low metastatic) cell line; assay: Direct cell adhesion to peptide-coated surfaces; type: cell-based; details: surface coated with 1 μg
Description: as §1, §6, §7

[15] = system: human colon carcinoma KM12 SM (high metastatic) cell line; assay: Direct cell adhesion to peptide-coated surfaces; type: cell-based; details: surface coated with 1 μg
Description: as §1, §6, §7

[16] = system: human renal carcinoma SN12 PM-6 (high metastatic) cell line; assay: Direct cell adhesion to peptide-coated surfaces; type: cell-based; details: surface coated with 1 μg; human renal (SN12 PM6)
Description: as §1, §6, §7

[17] = system: human renal carcinoma SN12 C (low metastatic) cell line; assay: Direct cell adhesion to peptide-coated surfaces; type: cell-based; details: surface coated with 1 μg; human renal (SN12C)
Description: as §1, §6, §7

[18] = system: HT-1080 human fibrosarcoma cells; assay: Cell spreading assay; type: cell-based
Method: (§8) Spreading of the adherent cells was evaluated by performing adhesion assays similar to those described above. Twenty-four well tissue culture plates (Becton Dickinson and Co., Lincoln Park, N.J.) were coated with 300 μl of laminin, synthetic peptides, or BSA at 100 μg/ml, then blocked with 2 mg/ml BSA in PBS. Three hundred microliters of a cell suspension at 5×10^4 cells/ml was added to each well, and after a 21/2 hour incubation, nonadherent cells were aspirated out of the wells. Adherent cells were fixed with 2% glutaraldehyde in PBS at 23° C. for one hour. The glutaraldehyde was then removed and the cells were stained by two different techniques. For photographic purposes, the cells were stained with Diff-Quik Solution I (American Scientific Products, McGaw Park, Ill.) for 10 minutes at 23° C. Solution I was removed, then Diff-Quik Solution II was added and the cells were stained for another 10 minutes at 23° C. Wells were washed with PBS, then representative cells were photographed with a Nikon DIAPHOT inverted phase microscope using Panatomic X Film ASA32 (Eastman Kodak, Rochester, N.Y.). Adherent cells to be quantitated for spreading were stained overnight at 23° C. with 500 μl of a solution containing 0.12% (w/v) Coomassie Brilliant Blue R (Sigma Chemical Co.), 5% (v/v) acetic acid, and 50% (v/v) ethanol. Wells were washed three times with 500 μl of PBS and cell spreading was then quantitated by measuring the average surface area occupied by a cell using an Opti-Max Image Analyzer. Thirty cells were measured per well; each experiment was done in quadruplicate and repeated three times. In all cases, the cells spread on the peptides to occupy an area about 60% of that seen on laminin-coated surfaces.

[19] = system: murine fibrosarcoma (MM) cells; assay: Cell spreading assay; type: cell-based; details: wells coated at 100 μg/ml, 2 1/2 hour incubation
Method: as §8

[20] = system: human renal (SN12C) cells; assay: Cell spreading assay; type: cell-based; details: wells coated at 100 μg/ml, 2 1/2 hour incubation
Method: as §8

[21] = system: human renal (SN12 PM6) cells; assay: Cell spreading assay; type: cell-based; details: wells coated at 100 μg/ml, 2 1/2 hour incubation
Method: as §8

KQNCLSSRASFRGCVRNLRLSR [Peptide R30, laminin A chain residues 3011-3032]
Percentage Inhibition of Laminin-Mediated Cell Adhesion [1]: 51% | Percentage Inhibition of Laminin-Mediated Cell Adhesion [2]: 22% | Percentage Inhibition of Laminin-Mediated Cell Adhesion [3]: 25% | Percentage Inhibition of Laminin-Mediated Cell Adhesion [4]: 38% | Percentage Inhibition of Laminin-Mediated Cell Adhesion [5]: 0% | Percentage Inhibition of Laminin-Mediated Cell Adhesion [6]: 59% | Percentage Inhibition of Laminin-Mediated Cell Adhesion [7]: 44% | Percentage of Cells Adhered to Surface [8]: 92% | Heparin Binding (bound ^3 H-heparin as percent of input) ([9]; One microgram peptide adsorbed, 200,000 dpm ^3 H-heparin, 20 mM Tris pH 6.8, 50 mM NaCl, 2 mg/ml ovalbumin): **** (>10% [****]) | Bound ^3 H-heparin as percent of input, 0.05M NaCl ([9]; Two micrograms peptide adsorbed, 0.02M Tris pH 6.8, 0.05M NaCl, 2 hr 37 C): **** (>10% (****)) | Bound ^3 H-heparin as percent of input, 0.15M NaCl ([9]; Two micrograms peptide adsorbed, 0.02M Tris pH 6.8, 0.15M NaCl, 2 hr 37 C): **** (>10% (****)) | Bound ^3 H-heparin as percent of input, 0.5M NaCl ([9]; Two micrograms peptide adsorbed, 0.02M Tris pH 6.8, 0.5M NaCl, 2 hr 37 C): *** (6.0-10.0% (***)) | Bound ^3 H-heparin as percent of input, 1.0M NaCl ([9]; Two micrograms peptide adsorbed, 0.02M Tris pH 6.8, 1.0M NaCl, 2 hr 37 C): * (2.0-3.9% (*)) | Heparin binding activity group ([9]; grouping of the Table II results in words): very good heparin binding | promotion of cell adhesion, in words [10]: capable of promoting the adhesion of all eight cell lines | Percentage of Cells Adhered to Surface [11]: 82% | Percentage of Cells Adhered to Surface [12]: 56% | Percentage of Cells Adhered to Surface [13]: 25% | Percentage of Cells Adhered to Surface [14]: 48% | Percentage of Cells Adhered to Surface [15]: 69% | Percentage of Cells Adhered to Surface [16]: 67% | Percentage of Cells Adhered to Surface [17]: 84% | HT-1080 cell spreading, in words ([18]; ranking of Table VII): promoted the most cell spreading | Surface Area Occuppied by a Cell ([18]; wells coated at 100 μg/ml, 2 1/2 hour incubation, HT-1080, Table VII): 392 +/- 27 um2 | Surface Area Occupied by a Cell ([18]; wells coated at 100 μg/ml, 2 1/2 hour incubation, human fibrosarcoma (HT1080), Table VI): 392 ± 27 μm^2 | Surface Area Occupied by a Cell [19]: 291 ± 21 μm^2 | Surface Area Occupied by a Cell [20]: 292 ± 22 μm^2 | Surface Area Occupied by a Cell [21]: 311 ± 19 μm^2
